Test results taken from US20260078111A1, “CARBONIC ANHYDRASE ENZYME INHIBITORS AND METHODS OF USE THEREOF” (RUTGERS, THE STATE UNIVERSITY OF NEW JERSEY, priority 2022, published 2026).

Test system: mast cell development from murine bone marrow cells
Assay: In vitro mast cell development culture assay (IL-3, flow cytometry)
Type: cell-based, mice
Settings: 10 μm; in vitro mast cell cultures
Procedure: To further test the ability of 4-(3-hydroxy-1-(4-methoxybenzyl)-2-oxoindolin-3-yl)benzenesulfonamide to inhibit mast cell development, an established mast cell culture assay was employed (Henry, E. K., et al., J Exp Med, 2016. 213(9): p. 1663-73). As a positive control for mast cell development, bone marrow cells were isolated from the femur of mice and cultured in the presence of 10 ng/mL of IL-3 and vehicle (1:10, DMSO/RPMI complete media) for seven days and mast cells were identified by flow cytometric analysis as (c-Kit+ FceRIa+ CD49b− cells).
In vitro Mast Cell development: Briefly, 1×10^6 bone marrow-resident progenitor cells were isolated from the femur of mice and cultured in complete media supplemented with 10 ng/mL of rIL-3 for a period of […]. Mast cells were identified by their expression of the surface molecules FcεRIα and c-Kit via flow cytometric analysis. In addition to IL-3, cultures were treated with vehicle or increasing concentrations of Car enzyme inhibitors at the indicated concentrations.

SMILES | Percent Inhibition at 10 μm [%]
CN1C(=O)C(O)(c2ccc(S(N)(=O)=O)cc2)c2ccccc21 (centres unmarked) | 84
NS(=O)(=O)c1ccc(C2(O)C(=O)N(Cc3ccc(F)cc3)c3ccccc32)cc1 (centres unmarked) | 98
NS(=O)(=O)c1ccc(C2(O)C(=O)Nc3ccccc32)cc1 (centres unmarked) | 94
CCN1C(=O)C(O)(c2ccc(S(N)(=O)=O)cc2)c2ccccc21 (centres unmarked) | 99
CCN1C(=O)C(F)(c2ccc(S(N)(=O)=O)cc2)c2ccccc21 (centres unmarked) | 99
NS(=O)(=O)c1ccc(C2(F)C(=O)N(Cc3ccc(F)cc3)c3ccccc32)cc1 (centres unmarked) | 98
CN1C(=O)C(F)(c2ccc(S(N)(=O)=O)cc2)c2ccccc21 (centres unmarked) | 100
COc1ccc(CN2C(=O)C(F)(c3ccc(S(N)(=O)=O)cc3)c3ccccc32)cc1 (centres unmarked) | 99

Same assay, conditions: Mus musculus, Mast cell, read-out: POI (percent of inhibition based on MC numbers)

SMILES | inhibition at 15 µM [%]
NS(=O)(=O)c1ccc(C2(O)C(=O)N(Cc3ccc(OC(F)F)cc3)c3ccccc32)cc1 (centres unmarked) [NEM-4A, 4-[1-[[4-(difluoromethoxy)phenyl]methyl]-3-hydroxy-2-oxo-indolin-3-yl]benzenesulfonamide] | 82
COc1ccc(N2C(=O)C(O)(c3ccc(S(N)(=O)=O)cc3)c3ccccc32)cc1 (centres unmarked) [NEM-13A, 4-[3-hydroxy-1-(4-methoxyphenyl)-2-oxo-indolin-3-yl]benzenesulfonamide] | 87
NS(=O)(=O)c1ccc(C2(O)C(=O)N(Cc3ccc(N4CCCCC4)cc3)c3ccccc32)cc1 (centres unmarked) [NEM-19A, 4-[3-hydroxy-2-oxo-1-[[4-(1-piperidyl)phenyl]methyl]indolin-3-yl]benzenesulfonamide] | 99
NS(=O)(=O)c1ccc(C2(O)C(=O)N(Cc3ccc(N4CCC(F)(F)CC4)cc3)c3ccccc32)cc1 (centres unmarked) [NEM-20A, 4-[1-[[4-(4,4-difluoro-1-piperidyl)phenyl]methyl]-3-hydroxy-2-oxo-indolin-3-yl]benzenesulfonamide] | 100
NS(=O)(=O)c1ccc(C2(O)C(=O)N(Cc3ccc(C4CCNCC4)cc3)c3ccccc32)cc1 (centres unmarked) [NEM-21A, 4-[3-hydroxy-2-oxo-1-[[4-(4-piperidyl)phenyl]methyl]indolin-3-yl]benzenesulfonamide] | 81
NS(=O)(=O)c1ccc(C2(O)C(=O)N(Cc3ccc(N4CCNCC4)cc3)c3ccccc32)cc1 (centres unmarked) [NEM-22A, 4-[3-hydroxy-2-oxo-1-[(4-piperazin-1-ylphenyl)methyl]indolin-3-yl]benzenesulfonamide] | 53
NS(=O)(=O)c1ccc(C2(O)C(=O)N(Cc3ccc(-n4ccnc4)cc3)c3ccccc32)cc1 (centres unmarked) [NEM-25A, 4-[3-hydroxy-1-[(4-imidazol-1-ylphenyl)methyl]-2-oxo-indolin-3-yl]benzenesulfonamide] | 87
NS(=O)(=O)c1ccc(C2(O)C(=O)N(Cc3ccc4ncccc4c3)c3ccccc32)cc1 (centres unmarked) [NEM-26A, 4-[3-hydroxy-2-oxo-1-(6-quinolylmethyl)indolin-3-yl]benzenesulfonamide] | 82
NS(=O)(=O)c1ccc(C2(O)C(=O)N(c3ccc(Br)cc3)c3ccccc32)cc1 (centres unmarked) [NEM-27A, 4-[1-(4-bromophenyl)-3-hydroxy-2-oxo-indolin-3-yl]benzenesulfonamide] | 94
CC(C)(C)OC(=O)N1CCC(c2ccc(CN3C(=O)C(O)(c4ccc(S(N)(=O)=O)cc4)c4ccccc43)cc2)CC1 (centres unmarked) [NEM-30A, tert-butyl 4-[4-[[3-hydroxy-2-oxo-3-(4-sulfamoylphenyl)indolin-1-yl]methyl]phenyl]piperidine-1-carboxylate] | 100
CC(C)(C)OC(=O)N1CCN(c2ccc(CN3C(=O)C(O)(c4ccc(S(N)(=O)=O)cc4)c4ccccc43)cc2)CC1 (centres unmarked) [NEM-32A, tert-butyl 4-[4-[[3-hydroxy-2-oxo-3-(4-sulfamoylphenyl)indolin-1-yl]methyl]phenyl]piperazine-1-carboxylate] | 100
NS(=O)(=O)c1ccc(C2(O)C(=O)N(c3cccc4cc(F)ccc34)c3ccccc32)cc1 (centres unmarked) [NEM-34A, 4-[1-(6-fluoro-1-naphthyl)-3-hydroxy-2-oxo-indolin-3-yl]benzenesulfonamide] | 99
